Source: US20050170431A1, “PYK2 crystal structure and uses” (Plexxikon, Inc., priority 2003, published 2005)

Biological target: T1, Pyk2 kinase domain residues 419 to 691 (Homo sapiens, UniProt Q14289)
T1 construct: PYK2 kinase domain I420-M691 (not including first 21 aa in); made in house; host or cells: E. coli BL21 (DE3) pLysS
Assay: PYK2 kinase activity assay in AlphaScreen, inhibition by ATP analogs
Format: biochemical
Details: Pyk2 at 8 ng/well and ATP at 10 uM; read-out: affinity with Pyk2
Experimental: As an exemplary kinase assay, the kinase activity of PYK2 was measured in AlphaScreening (Packard BioScience). The kinase buffer (HMNB) contains HEPES 50 mM at pH7.2, Mg/Mn 5 mM each, NP-40 0.1%, and BSA at final 50 ug/ml. AlphaScreening is conducted as described by the manufacturer. In brief, the kinase reaction is performed in 384-well plate in 25 ul volume. The substrate is biotin-(E4Y)3 at final concentration of 1 nM. The final concentration of ATP is 10 uM. For compound testing the final DMSO concentration is 1%. The reaction is incubated in 31° C. for 1 hour.
The Pyk2 kinase domain residues 419 to 691 is an active kinase in AlphaScreen. […] Inhibition by ATP analogs was tested with Pyk2 at 8 ng/well and ATP at 10 uM. […] Adenosine and AMP-PCP have little effect on PYK2 in the concentration tested.

T1 sequence (Q14289 420-691): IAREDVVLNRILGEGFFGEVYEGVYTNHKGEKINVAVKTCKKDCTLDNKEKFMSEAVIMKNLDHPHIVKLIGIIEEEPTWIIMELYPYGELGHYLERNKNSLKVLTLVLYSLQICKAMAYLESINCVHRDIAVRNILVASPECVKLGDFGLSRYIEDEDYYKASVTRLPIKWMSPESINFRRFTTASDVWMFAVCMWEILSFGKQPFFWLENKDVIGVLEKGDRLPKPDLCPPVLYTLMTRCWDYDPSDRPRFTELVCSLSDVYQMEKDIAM

Compound | IC50 [µM]
Nc1ncnc2c1ncn2[C@@H]1O[C@H](COP(=O)(O)OP(=O)(O)O)[C@@H](O)[C@H]1O [ADT, ADP] | 14
Nc1ncnc2c1ncn2[C@@H]1O[C@H](COP(=O)(O)OP(=O)(O)OP(O)(O)=S)[C@@H](O)[C@H]1O [ATP-g-S] | 14
